Experimental data taken from ChEMBL document CHEMBL1134138, “Phytoestrogens from the roots of Polygonum cuspidatum (Polygonaceae): structure-requirement of hydroxyanthraquinones for estrogenic activity” (Bioorg Med Chem Lett, 2001).

What was measured:
Estrogen receptor beta [1] = molecular target: T1, Estrogen receptor beta (Homo sapiens, UniProt Q92731)
Description: (§1) Inhibition of binding of 17 beta-estradiol to human Estrogen receptor beta

Estrogen receptor beta [2] = molecular target: T1, Estrogen receptor beta; remark: listed apart in the source
Description: as §1

Estrogen receptor [3] = molecular target: T2, Estrogen receptor (Homo sapiens, UniProt P03372)
T2 sequence (P03372 whole entry): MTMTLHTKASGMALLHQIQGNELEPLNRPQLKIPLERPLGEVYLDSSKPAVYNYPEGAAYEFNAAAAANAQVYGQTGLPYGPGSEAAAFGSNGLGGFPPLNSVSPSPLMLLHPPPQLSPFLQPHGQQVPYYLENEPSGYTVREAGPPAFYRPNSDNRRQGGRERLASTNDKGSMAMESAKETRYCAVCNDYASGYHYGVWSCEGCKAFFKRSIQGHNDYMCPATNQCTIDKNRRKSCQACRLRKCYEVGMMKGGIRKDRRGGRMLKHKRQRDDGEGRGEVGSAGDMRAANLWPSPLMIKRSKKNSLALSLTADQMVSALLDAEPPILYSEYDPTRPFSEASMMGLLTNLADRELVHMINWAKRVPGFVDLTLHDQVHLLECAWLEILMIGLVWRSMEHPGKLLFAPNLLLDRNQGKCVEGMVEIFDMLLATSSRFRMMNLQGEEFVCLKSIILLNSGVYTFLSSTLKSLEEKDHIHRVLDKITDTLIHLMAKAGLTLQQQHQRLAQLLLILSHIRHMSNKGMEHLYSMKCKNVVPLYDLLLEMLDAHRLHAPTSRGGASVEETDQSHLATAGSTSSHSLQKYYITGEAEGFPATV
Description: (§2) Inhibition of binding of 17 beta-estradiol to human Estrogen receptor alpha

Estrogen receptor [4] = molecular target: T2, Estrogen receptor; remark: listed apart in the source
Description: as §2

T1 sequence (Q92731 whole entry): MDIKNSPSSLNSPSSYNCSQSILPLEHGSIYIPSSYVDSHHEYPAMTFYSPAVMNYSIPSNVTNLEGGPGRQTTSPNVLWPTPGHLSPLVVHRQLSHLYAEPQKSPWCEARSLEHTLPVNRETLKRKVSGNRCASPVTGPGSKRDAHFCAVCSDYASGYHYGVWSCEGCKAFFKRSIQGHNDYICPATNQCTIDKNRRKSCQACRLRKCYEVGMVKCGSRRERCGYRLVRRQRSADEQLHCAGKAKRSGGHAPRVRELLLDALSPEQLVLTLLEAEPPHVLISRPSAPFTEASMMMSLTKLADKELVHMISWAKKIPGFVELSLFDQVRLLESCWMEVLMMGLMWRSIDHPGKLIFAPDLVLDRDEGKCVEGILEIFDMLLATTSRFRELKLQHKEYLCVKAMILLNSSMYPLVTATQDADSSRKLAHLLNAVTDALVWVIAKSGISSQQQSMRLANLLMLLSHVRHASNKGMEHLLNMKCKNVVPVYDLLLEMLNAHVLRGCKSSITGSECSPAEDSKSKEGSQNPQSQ

Row | IC50 (Estrogen receptor beta [1]) | Ki (Estrogen receptor beta [2]) | IC50 (Estrogen receptor [3]) | Ki (Estrogen receptor [4]) | Compound
1 | 62 µM | 18 µM | 20 µM | 5.7 µM | Cc1cc(O)c2c(c1)C(=O)c1cc(O)cc(O[C@@H]3O[C@H](CO)[C@@H](O)[C@H](O)[C@H]3O)c1C2=O [EMODIN 8-O-BETA-D-GLUCOPYRANOSIDE]
2 | 2.4 µM | 0.69 µM | 1.1 µM | 0.31 µM | O=C1c2ccc(O)cc2C(=O)c2ccc(O)cc21

Row | Compound | IC50 (Estrogen receptor beta [1]) | Ki (Estrogen receptor beta [2]) | IC50 (Estrogen receptor [3]) | Ki (Estrogen receptor [4])
3 | Cc1cc(O)c2c(c1)C(=O)c1cc(O)cc(O)c1C2=O [EMODIN] | 5.2 µM | 1.5 µM |  | 
